# According to US8916575B2, “Quinazoline derivatives for the treatment of viral infections and further diseases” (Janssen R&D Ireland, priority 2011, dated 2014):
# What was measured:
# [1] = tested on: HCV replicon (Huh-7 luc/neo cells); test: Suppression of HCV replicon replication by conditioned media from PBMC; assay type: cell-based, HCV type 1b; conditions: Hepatitis C virus, compound concentration applied to PBMCs giving 50% reduction of replicon luciferase activity, read-out: PBMC-HUH7_EC50
# Experimental: Activation of human TLR7 results in robust production of interferon by plasmacytoid dendritic cells present in human blood. The potential of compounds to induce interferon was evaluated by looking at the antiviral activity in the HCV replicon system upon incubation with conditioned media from peripheral blood mononuclear cells (PBMC). The HCV replicon assay is based on a bicistronic expression construct, as described by Lohmann et al. (Science (1999) 285: 110-113; Journal of Virology (2003) 77: 3007-15 3019) with modifications described by Krieger et al. (Journal of Virology (2001) 75: 4614-4624). The assay utilized the stably transfected cell line Huh-7 luc/neo harboring an RNA encoding a bicistronic expression construct comprising the wild type NS3-NS5B regions of HCV type 1b translated from an Internal Ribosome Entry Site (IRES) from encephalomyocarditis virus (EMCV), preceded by a reporter gene (Firefly-luciferase) and a selectable marker gene (neoR, neomycine phosphotransferase). The construct is flanked by 5′ and 3′ NTRs (non-translated regions) from HCV type 1b. Continued culture of the replicon cells in the presence of G418 (neoR) is dependent on the replication of the HCV RNA. The stably transfected replicon cells that replicate HCV RNA autonomously and to high levels, encoding inter alia luciferase, were used for profiling of the conditioned cell culture media.
# Briefly, PBMCs were prepared from buffy coats of at least two donors using a standard Ficoll centrifugation protocol. Isolated PBMCs were resuspended in RPMI medium supplemented with 10% human AB serum and 2×10^5 cells/well were dispensed into 384-well plates containing compounds (70 μL total volume). After overnight incubation, 10 μL of supernatant was transferred to 384-well plates containing 2.2×10^3 replicon cells/well in 30 μL (plated the day before). Following 24 hours of incubation, replication was measured by assaying luciferase activity using 40 μL/well Steady Lite Plus substrate (Perkin Elmer) and measured with ViewLux ultraHTS microplate imager (Perkin Elmer). The inhibitory activity of each compound on the Huh7-luc/neo cells were reported as EC50 values, defined as the compound concentration applied to the PBMCs resulting in a 50% reduction of luciferase activity which in turn indicates the degree of replication of the replicon RNA on transfer of a defined amount of PBMC culture medium. Recombinant interferon α-2a (Roferon-A) was used as a standard control compound.
# [2] = tested on: human TLR7 mutant (dIRR2); test: TLR7 mutant (deletion in second leucine-rich repeat) NFκB-luc cellular reporter assay; assay type: cell-based; set-up: unit not given here; conditions: HEK293 NFκB-luc reporter, mutant TLR7, 6 hours incubation
# Experimental: (§1) The ability of compounds to activate human TLR7 and/or TLR8 was assessed in a cellular reporter assay using HEK293 cells transiently transfected with a TLR7 or TLR8 expression vector and NFκB-luc reporter construct. In one instance the TLR expression construct expresses the respective wild type sequence or a mutant sequence comprising a deletion in the second leucine-rich repeat of the TLR.
# (§2) Briefly, HEK293 cells were grown in culture medium (DMEM supplemented with 10% FCS and 2 mM Glutamine). For transfection of cells in 10 cm dishes, cells were detached with Trypsin-EDTA, transfected with a mix of CMV-TLR7 or TLR8 plasmid (750 ng), NFκB-luc plasmid (375 ng) and a transfection reagent and incubated 24 hours at 37° C. in a humidified 5% CO2 atmosphere. Transfected cells were then detached with Trypsin-EDTA, washed in PBS and resuspended in medium to a density of 1.67×10^5 cells/mL. Thirty microliters of cells were then dispensed into each well in 384-well plates, where 10 μL of compound in 4% DMSO was already present. Following 6 hours incubation at 37° C., 5% CO2, the luciferase activity was determined by adding 15 μl of Steady Lite Plus substrate (Perkin Elmer) to each well and readout performed on a ViewLux ultraHTS microplate imager (Perkin Elmer). Dose response curves were generated from measurements performed in quadruplicates. Lowest effective concentrations (LEC) values, defined as the concentration that induces an effect which is at least two fold above the standard deviation of the assay, were determined for each compound.
# [3] = tested on: human TLR8 mutant (dIRR2); test: TLR8 mutant (deletion in second leucine-rich repeat) NFκB-luc cellular reporter assay; assay type: cell-based; set-up: unit not given here; conditions: HEK293 NFκB-luc reporter, mutant TLR8, 6 hours incubation
# Experimental: as §1, §2
# human TLR8 = target: T1, human TLR8 (Homo sapiens, UniProt Q9NR97); test: TLR8 wild type NFκB-luc cellular reporter assay; assay type: cell-based; set-up: unit not given here; conditions: HEK293 NFκB-luc reporter, 6 hours incubation
# T1 construct: expressed in transfected cells; host or cells: HEK293
# T1 sequence (Q9NR97 27-1041): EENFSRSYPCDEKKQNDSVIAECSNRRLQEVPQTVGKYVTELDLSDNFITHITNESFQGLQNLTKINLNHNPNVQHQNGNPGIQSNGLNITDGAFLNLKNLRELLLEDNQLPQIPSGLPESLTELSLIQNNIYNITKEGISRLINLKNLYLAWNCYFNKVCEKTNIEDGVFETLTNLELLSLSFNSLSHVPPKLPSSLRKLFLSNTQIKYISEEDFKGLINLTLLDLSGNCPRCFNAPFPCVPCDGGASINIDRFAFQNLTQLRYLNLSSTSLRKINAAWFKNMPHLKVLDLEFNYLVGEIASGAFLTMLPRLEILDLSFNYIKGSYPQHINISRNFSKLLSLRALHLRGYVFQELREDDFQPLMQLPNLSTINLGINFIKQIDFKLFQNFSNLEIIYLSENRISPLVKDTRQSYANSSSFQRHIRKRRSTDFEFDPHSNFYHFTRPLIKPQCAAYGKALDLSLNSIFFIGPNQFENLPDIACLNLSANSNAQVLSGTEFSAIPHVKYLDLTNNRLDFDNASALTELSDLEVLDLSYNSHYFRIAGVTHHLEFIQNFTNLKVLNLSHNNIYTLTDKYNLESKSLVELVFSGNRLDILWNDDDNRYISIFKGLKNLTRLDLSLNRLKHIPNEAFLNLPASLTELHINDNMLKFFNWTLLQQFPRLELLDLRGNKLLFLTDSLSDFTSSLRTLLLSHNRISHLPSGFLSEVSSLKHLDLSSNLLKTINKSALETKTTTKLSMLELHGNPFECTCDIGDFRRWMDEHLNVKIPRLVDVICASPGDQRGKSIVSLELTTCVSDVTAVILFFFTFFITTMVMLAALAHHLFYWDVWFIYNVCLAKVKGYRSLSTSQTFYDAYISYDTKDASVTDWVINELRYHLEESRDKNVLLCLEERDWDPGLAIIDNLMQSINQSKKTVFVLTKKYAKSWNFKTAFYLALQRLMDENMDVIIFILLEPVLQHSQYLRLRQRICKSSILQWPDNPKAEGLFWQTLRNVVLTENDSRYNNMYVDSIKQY
# Experimental: as §1, §2
structure (smiles),measurement,setting,value
CC[C@H](C)[C@@H](CO)Nc1nc(N)nc2cc(OC)c(OC)cc12 [Compound 7],EC50,[1],12.4 µM
same,TLR7-dIRR2_LEC,[2],3.8
same,TLR8-dIRR2_LEC,[3],9.0
same,TLR8-wt_LEC,human TLR8,13.8
